In publication PMC11542830, “3-nitropyridine analogues as novel microtubule-targeting agents” (PLOS ONE, 2024):
pIC50: −log10 of the molar value.

Legend:
[1] = system: K-562; test: NCI60 5-dose screen, K-562; type: cell-based; conditions: Homo sapiens, K562; leukemia; Fig 1D; read-out: Log10 GI50 (K-562) (converted)
Description: (§1) The screening methodology used in the NCI60 Cell 5-Doses screen is described in detail at https://dtp.cancer.gov/discovery_development/nci-60/methodology.htm. Briefly, cells are seeded in 96 well plates at an appropriate density and incubated for 1 day. After 1 day, some of the plates are processed to determine a time zero density. To the remaining plates, compounds are added over a 5-log M concentration range (1 log dilutions from 10^-4M to 10^-8M). Plates are incubated for two additional days, then fixed and stained with sulforhodamine B. Growth inhibition is calculated relative to cells without drug treatment and the time zero control. The GI50 is the concentration of a compound that causes 50% growth inhibition, relative to the no drug control.

[2] = system: ACHN; test: NCI60 5-dose screen, ACHN; type: cell-based; conditions: Homo sapiens, renal cancer, Fig 1D, read-out: Log10 GI50 (ACHN) (converted)
Description: as §1

[3] = system: U251; test: NCI60 5-dose screen, U251; type: cell-based; conditions: Homo sapiens, U-251; CNS cancer; Fig 1D; read-out: Log10 GI50 (U251) (converted)
Description: as §1

[4] = system: NCI-H23; test: NCI60 5-dose screen, NCI-H23; type: cell-based; conditions: Homo sapiens, non-small cell lung cancer, Fig 1D, read-out: Log10 GI50 (NCI-H23) (converted)
Description: as §1

[5] = system: SK-OV-3; test: NCI60 5-dose screen, SK-OV-3; type: cell-based; conditions: Homo sapiens, ovarian cancer, Fig 1D, read-out: Log10 GI50 (SK-OV-3) (converted)
Description: as §1

[6] = system: TK-10; test: NCI60 5-dose screen, TK-10; type: cell-based; conditions: Homo sapiens, renal cancer, Fig 1D, read-out: Log10 GI50 (TK-10) (converted)
Description: as §1

[7] = system: Jurkat cells; test: Cell cycle analysis (DAPI, high content imaging), Jurkat; type: cell-based, human; conditions: 24 hours
Description: Cell viability in cancer cell lines treated with compound was measured in a 3-day MTS cell proliferation assay using the CellTiter 96 AQueous Non-Radioactive Cell Proliferation Assay reagent (Promega) according to the manufacturer’s instructions. Absorbance was read at 490 nm on a SaFire II microplate reader (Tecan). CC50 values were calculated by fitting the obtained MTS cell viability data in GraphPad Prism using a 4-parameter log–based fit for inhibitors. Apoptosis induction and cell death upon compound treatment in PBMC was measured using the Alexa Fluor 488 Annexin V/Dead Cell Apoptosis Kit (Thermo Fisher Scientific), with readout on a FACSCanto II flow cytometer (BD Biosciences). For cell cycle analysis, Jurkat cells were seeded at 400,000 cells per well in 12-well tissue culture plates and treated with the test compounds at the indicated concentrations for 24 h. Cells were then harvested by centrifugation at 400 x g, washed in PBS and transferred to an 8-well μ-Slide (Ibidi) that had been pretreated with 0.1% (w/v) poly-L-lysine (Sigma). Cells were allowed to adhere to the slides, fixed with 4% PFA in PBS for 10 minutes, washed and stained with DAPI. […] The compounds were evaluated in duplo in two independent experiments.

[8] = system: PC-3; test: NCI60 5-dose screen, PC-3; type: cell-based; conditions: Homo sapiens, prostate cancer, Fig 1D, read-out: Log10 GI50 (PC-3) (converted)
Description: as §1

[9] = system: PC3 cells; test: 3-day MTS cell viability assay, PC3; type: cell-based; conditions: Homo sapiens, PC-3, 72 hours, Fig 1C
Description: (§2) All cancer cell lines (HT-29: colorectal adenocarcinoma, HCT-116: colorectal carcinoma, A549: lung epithelial carcinoma, PC3: prostate adenocarcinoma, Jurkat: acute T-cell leukemia, BC-1: primary effusion lymphoma) and the normal human embryonal lung fibroblast cell line MRC-5 were acquired from the American Type Culture Collection (ATCC). All cell lines were cultured as recommended by the suppliers. Culture media were purchased from Gibco (Thermo Fisher Scientific) and supplemented with 10 to 20% fetal bovine serum (HyClone, GE Healthcare Life Sciences) and 20–25 μg/mL gentamicin (Gibco, Thermo Fisher Scientific). […]
(§3) Cell viability in cancer cell lines treated with compound was measured in a 3-day MTS cell proliferation assay using the CellTiter 96 AQueous Non-Radioactive Cell Proliferation Assay reagent (Promega) according to the manufacturer’s instructions. Absorbance was read at 490 nm on a SaFire II microplate reader (Tecan). CC50 values were calculated by fitting the obtained MTS cell viability data in GraphPad Prism using a 4-parameter log–based fit for inhibitors. Apoptosis induction and cell death upon compound treatment in PBMC was measured using the Alexa Fluor 488 Annexin V/Dead Cell Apoptosis Kit (Thermo Fisher Scientific), with readout on a FACSCanto II flow cytometer (BD Biosciences). […] The compounds were evaluated in duplo in two independent experiments.

[10] = system: OVCAR-8; test: NCI60 5-dose screen, OVCAR-8; type: cell-based; conditions: Homo sapiens, ovarian cancer, Fig 1D, read-out: Log10 GI50 (OVCAR-8) (converted)
Description: as §1

[11] = system: HCC-2998; test: NCI60 5-dose screen, HCC-2998; type: cell-based; conditions: Homo sapiens, colon cancer, Fig 1D, read-out: Log10 GI50 (HCC-2998) (converted)
Description: as §1

[12] = system: A549 cells; test: 3-day MTS cell viability assay, A549; type: cell-based; conditions: Homo sapiens, 72 hours, Fig 1C
Description: as §2, §3

[13] = system: HCT-116; test: NCI60 5-dose screen, HCT-116; type: cell-based; conditions: Homo sapiens, colon cancer, Fig 1D, read-out: Log10 GI50 (HCT-116) (converted)
Description: as §1

[14] = system: MRC-5 cells; test: 3-day MTS cell viability assay, MRC-5; type: cell-based; conditions: Homo sapiens, MRC5, 72 hours, normal lung fibroblast cells, Fig 1C
Description: as §2, §3

[15] = system: UACC-62; test: NCI60 5-dose screen, UACC-62; type: cell-based; conditions: Homo sapiens, melanoma, Fig 1D, read-out: Log10 GI50 (UACC-62) (converted)
Description: as §1

[16] = system: SK-MEL-2; test: NCI60 5-dose screen, SK-MEL-2; type: cell-based; conditions: Homo sapiens, melanoma, Fig 1D, read-out: Log10 GI50 (SK-MEL-2) (converted)
Description: as §1

[17] = system: Jurkat cells; test: Apoptosis induction, annexin V/PI staining, Jurkat; type: cell-based, human; conditions: 24 hours, dose-dependent
[18] = system: HOP-62; test: NCI60 5-dose screen, HOP-62; type: cell-based; conditions: Homo sapiens, non-small cell lung cancer, Fig 1D, read-out: Log10 GI50 (HOP-62) (converted)
Description: as §1

[19] = system: NCI-H522; test: NCI60 5-dose screen, NCI-H522; type: cell-based; conditions: Homo sapiens, non-small cell lung cancer, Fig 1D, read-out: Log10 GI50 (NCI-H522) (converted)
Description: as §1

| Compound | GI50 [1] | GI50 [2] | GI50 [3] | GI50 [4] | GI50 [5] | GI50 [6] | effect on cell cycle progression [7] | GI50 [8] | pIC50 [9] | GI50 [10] | GI50 [11] | pIC50 [12] | GI50 [13] | pIC50 [14] | GI50 [15] | GI50 [16] | apoptosis induction [17] | GI50 [18] | GI50 [19] |
| --- | --- | --- | --- | --- | --- | --- | --- | --- | --- | --- | --- | --- | --- | --- | --- | --- | --- | --- | --- |
| Cc1cc(C)cc(Nc2ccc([N+](=O)[O-])c(NCCN3CCOCC3)n2)c1 [Compound 4AZA2891, 6-(3,5-dimethylanilino)-2-(2-morpholinoethylamino)-3-nitropyridine] | 11.5 nM | 12 nM | 30.9 nM | 27.5 nM | 58.9 nM | 12900 nM | induce G2 cell cycle arrest | 10.5 nM | 7.92 | 37.2 nM | 28.8 nM | 7.69 | 14.8 nM | 4.53 | < 10 nM | 34.7 nM | induce apoptosis | 30.2 nM | < 10 nM |
| Cc1ccnc(Nc2ccc([N+](=O)[O-])c(NCCN3CCOCC3)n2)c1 [Compound 4AZA2996, N^6-(4-methylpyridin-2-yl)-N^2-(2-morpholinoethyl)-3-nitropyridine-2,6-diamine] | < 10 nM | < 10 nM | < 10 nM | 15.5 nM | < 10 nM | 18600 nM | induce G2 cell cycle arrest | < 10 nM | 8.02 | 20 nM | 17 nM | 7.92 | < 10 nM | 4.63 | < 10 nM | 30.2 nM | induce apoptosis | < 10 nM | < 10 nM |
